Results published in publication PMC6263664 (CPT: Pharmacometrics & Systems Pharmacology, 2018).
Values joined by “and” are separate entries in the source; they are usually repeats but may differ in a detail not shown here. Equal values may be shown once. Read-outs that look alike come from different tables or passages of the source. Marks after values point to notes of the source that are not given here.

Legend:
[1] = cited from earlier work
[2] = assay type: in vivo, human
P‐glycoprotein (P‐gp) = conditions: cited from earlier work
[3] = tested on: cytochrome P450 3A4 (CYP3A4); conditions: cited from earlier work
[4] = vs normal renal function, phase I; cited from earlier work
[5] = Updated stage 1 / stage 2 population pharmacokinetic analysis; assay type: in vivo, human; conditions: for ACS subjects (θ13) effect on Vc/F, Estimate ± SE / Evening dosing (AM/PM = 2) (θ10) effect on ka, Estimate ± SE / NVAF subjects (θ12) effect on Vc/F, Estimate ± SE: fractional change; for Vd/F: Vc/F (θ3) apparent volume of distribution of the central compartment, Estimate ± SE; for D_WTB (θ11) baseline body weight effect on Vc/F, Estimate ± SE: power coefficient
[6] = cited from earlier work; remark: listed apart in the source
[7] = tested on: breast cancer resistance protein; conditions: cited from earlier work
[8] = fractional change, stage 2 final ad hoc model
[9] = power coefficient, stage 2 final ad hoc model
[10] = relative to non‐Asian typical patients with NVAF
[11] = relative to the typical 70‐kg NVAF subject

ACS subjects (θ13) effect on Vc/F, Estimate ± SE [2, 8]: −0.184 ± 0.0463
Evening dosing (AM/PM = 2) (θ10) effect on ka, Estimate ± SE [2, 8]: −0.436 ± 0.0237
Female (θ15) effect on CLNR/F, Estimate ± SE [2, 8]: −0.227 ± 0.0269
NVAF subjects (θ12) effect on Vc/F, Estimate ± SE [2, 8]: −0.0530 ± 0.0508
CL renal ([2]; human, plasma, oral): 26.7 mL/min
Vd/F ([2]; human, plasma, oral): 30 ± 1.04 L
Age (θ14) effect on CLNR/F, Estimate ± SE [2, 9]: −0.414 ± 0.0727
CL/F higher in Korean subjects ([2]; relative to non‐Asian subjects): 3.3%
CL/F lower in Japanese subjects ([2]; relative to non‐Asian subjects): 15.1%
CL/F lower in other Asian subjects ([2]; relative to non‐Asian subjects): 4.3%
change in daily AUCss, Japanese [2, 10]: 17.7%
change in daily AUCss, Korean [2, 10]: −3.2%
change in daily AUCss, other Asian races [2, 10]: 4.5%
change in population mean total CL/F, Japanese [2, 10]: −15.1%
change in population mean total CL/F, Korean [2, 10]: 3.3%
change in population mean total CL/F, other Asian races [2, 10]: −4.3%
CL/F apparent total clearance ([2]; simple sum of CLR/F and CLNR/F, stage 2 final ad hoc model): 3.62 ^a L/hour
Logit for reduction in Frel at 50 mg (I50) (θ9), Estimate ± SE ([2]; stage 2 final ad hoc model): −0.327 ± 0.0519
Shape parameter for Frel (γ) (θ8), Estimate ± SE ([2]; stage 2 final ad hoc model): 0.875 ± 0.0779
Vp/F (θ5) apparent volume of distribution of the peripheral compartment, Estimate ± SE ([2]; stage 2 final ad hoc model): 27.3 ± 2.78 L
ka (θ1) absorption rate constant, Estimate ± SE ([2]; stage 2 final ad hoc model): 0.471 ± 0.0218 h⁻¹
predicted increase in AUCss, moderate renal impairment ([5]; NVAF, cCrCL 40 mL/minute, compared with normal renal function): 28%
predicted increase in AUCss, mild renal impairment ([5]; NVAF, cCrCL = 65 mL/minute, compared with normal renal function): 9%
increase in exposure with strong/moderate inhibitors of both CYP3A4 and P‐gp ([5]; PPK estimate): ~ 17%
CLR/F (θ2) apparent renal clearance, Estimate ± SE ([5]; cCrCL reference 80 mL/minute, stage 2 final model): 1.57 ± 0.117 L/h
reduced CL/F, ACS ([5]; compared with healthy subjects): 21.5%
reduced CL/F, Asian race ([5]; compared with non‐Asian subjects): 11.9%
ACS subjects (θ13) effect on Vc/F, Estimate ± SE ([5]; stage 2 final model): −0.180 ± 0.0446
Evening dosing (AM/PM = 2) (θ10) effect on ka, Estimate ± SE ([5]; stage 2 final model): −0.433 ± 0.0236
NVAF subjects (θ12) effect on Vc/F, Estimate ± SE ([5]; stage 2 final model): −0.0405 ± 0.0491
ACS subjects (θ13) effect on Vc/F, Estimate ± SE ([5]; updated stage 1 final model): −0.177 ± 0.0449
Evening dosing (AM/PM = 2) (θ10) effect on ka, Estimate ± SE ([5]; updated stage 1 final model): −0.434 ± 0.0234
NVAF subjects (θ12) effect on Vc/F, Estimate ± SE ([5]; updated stage 1 final model): −0.0217 ± 0.0501
effect of strong CYP3A4/P‐gp inducers on CL/F ([5]; full stage 2 model, not included in final model): very small and poorly estimated
CL renal ([5]; human, plasma, oral): 26.2 mL/min
Vd/F ([5]; human, plasma, oral, stage 2 final model): 30 ± 0.971 L
Vd/F ([5]; human, plasma, oral, updated stage 1 final model): 29.8 ± 0.981 L
impact of Asian race on exposure ([5]; in vivo): < 15%
decrease in ka with administration in the evening ([5]; relative to administration in the morning or afternoon): 43%
increase in Vc/F for a 90‐kg subject [5, 11]: 22%
reduction in Vc/F for a 50‐kg subject [5, 11]: 23.3%
Logit for reduction in Frel at 50 mg (I50) (θ9), Estimate ± SE ([5]; stage 2 final model): −0.322 ± 0.0512
Shape parameter for Frel (γ) (θ8), Estimate ± SE ([5]; stage 2 final model): 0.857 ± 0.0684
Vp/F (θ5) apparent volume of distribution of the peripheral compartment, Estimate ± SE ([5]; stage 2 final model): 27.0 ± 2.03 L
ka (θ1) absorption rate constant, Estimate ± SE ([5]; stage 2 final model): 0.473 ± 0.0208 h⁻¹
Logit for reduction in Frel at 50 mg (I50) (θ9), Estimate ± SE ([5]; updated stage 1 final model): −0.321 ± 0.0512
Shape parameter for Frel (γ) (θ8), Estimate ± SE ([5]; updated stage 1 final model): 0.853 ± 0.0693
Vp/F (θ5) apparent volume of distribution of the peripheral compartment, Estimate ± SE ([5]; updated stage 1 final model): 26.7 ± 1.89 L
ka (θ1) absorption rate constant, Estimate ± SE ([5]; updated stage 1 final model): 0.471 ± 0.0204 h⁻¹
change in exposure due to individual covariate (demographic) effects ([5]; vs the reference NVAF subject, except severe renal impairment): < 25% and ≤ 25%
SMILES: COc1ccc(-n2nc(C(N)=O)c3c2C(=O)N(c2ccc(N4CCCCC4=O)cc2)CC3)cc1 [apixaban]
oral bioavailability [1]: ~ 50%
steady‐state volume of distribution [1]: ~ 21 liters
time dependency of pharmacokinetics [1]: no time dependency
total clearance [1]: 3.3 L/h
Renal clearance as share of total systemic clearance ([1]; following intravenous administration, healthy subjects): ~ 27%
half‐life ([1]; following oral administration): ~ 12 hours
dose dependence of exposure ([1]; therapeutic dose range (2.5–10 mg)): dose‐proportional increase in exposure
D_WTB (θ11) baseline body weight effect on Vc/F, Estimate ± SE [2, 9]: 0.792 ± 0.0648
substrate status (P‐glycoprotein (P‐gp)): substrate
pathway of plasma elimination [3]: metabolism primarily by cytochrome P450 3A4 (CYP3A4)
higher estimated AUCINF, mild renal impairment [4]: ~ 16%
higher estimated AUCINF, moderate renal impairment [4]: ~29%
higher estimated AUCINF, severe renal impairment [4]: ~44%
D_WTB (θ11) baseline body weight effect on Vc/F, Estimate ± SE ([5]; stage 2 final model): 0.790 ± 0.0645
D_WTB (θ11) baseline body weight effect on Vc/F, Estimate ± SE ([5]; updated stage 1 final model): 0.806 ± 0.0649
increase in AUC when co‐administered with diltiazem ([6]; diltiazem, a moderate CYP3A4/P‐gp inhibitor): 40%
increase in AUC when co‐administered with ketoconazole ([6]; ketoconazole, a strong CYP3A4/P‐gp inhibitor): 99%
substrate status [7]: substrate
